Experimental data reported in patent US20240100104A1, “METHODS AND COMPOSITION FOR THE TREATMENT OF AUTISM SPECTRUM DISORDER” (The General Hospital Corporation, priority 2020, published 2024).

Assays:
patients with ASD = assay: Clinical Global Impression-Improvement (CGI-I); format: in vivo, human; conditions: vs control group; P<0.05 only for combination
Method: FIG. 2. Proportion of subjects displaying improvement in CGI-I overtime among all subjects within a treatment condition.
Clinical Global Impression (CGI) was assessed to evaluate ASD symptoms and the relative extent of improvement in symptoms at each visiting time. […] The waterfall data of CGI score reduction in each group is shown in supplement FIG. 6.
This clinical trial is a randomized, double-blind, and placebo-controlled study in accordance with the Consolidated Standards of Reporting Trials (CONSORT) guidelines. Subjects were randomized to two groups with 1:1 ratio into this two-stage study. To achieve a statistical power of 80% for primary outcomes with a large effect size of 0.8 (Cohen's d) assumed, a total of 60 participants (30 in each arm) were required. However, as we are primarily interested in studying the preliminary effects of the proposed treatment, we enrolled and randomized 35 subjects who were included in the data analysis. In stage 1, the probiotics group received oral probiotics PS128 while the placebo group received oral placebo for 16 weeks. In stage 2, both groups continued their respective administration and simultaneously added intranasal oxytocin spray. The treatment proceeded for a total of 28 weeks with 3 visits for outcomes measurement at 0, 16 weeks, and 28 weeks (V1, V2, and V3, respectively). […]

mouse models of ASD = conditions: two mouse models of ASD; cited from earlier work
[1] = 32 IU per day, patients age 3-8 years old; cited from earlier work

What does the source list for `CC[C@H](C)[C@@H]1NC(=O)[C@H](Cc2ccc(O)cc2)NC(=O)[C@@H](N)CSSC[C@@H](C(=O)N2CCC[C@H]2C(=O)N[C@@H](CC(C)C)C(=O)NCC(N)=O)NC(=O)[C@H](CC(N)=O)NC(=O)[C@H](CCC(N)=O)NC1=O` [OXT, Oxytocin]?
proportion of subjects showing improvement in CGI-I (CGI-I≤3) (patients with ASD): non-significant, though a trend of improvement; effect on sociability (mouse models of ASD): enhanced sociability; safety of dosage [1]: safe and adequate
